Data reported in BindingDB's records for doi:10.1016/s0960-894x(98)00709-4 (Dupont Pharmaceuticals, 1999).
pIC50: −log10 of the molar value.

How the values were obtained:
[1] = Inhibition of platelet aggregation in heparin treated human platelet rich plasma (PRP)
[2] = Inhibition of platelet aggregation in citreated human platelet rich plasma (PRP)

pIC50 [1]	pIC50 [2]	SMILES
6.65	6.91	C=CCOP(=O)(NC(CNC(=O)CC1CC(c2ccc(C(=N)N)cc2)=NO1)C(=O)O)OCC=C (centres undefined) [2-(Bis-allyloxy-phosphorylamino)-3-{2-[3-(4-carbamimidoyl-phenyl)-4,5-dihydro-isoxazol-5-yl]-acetylamino}-propionic acid]
6.62	6.93	CCOP(=O)(NC(CNC(=O)CC1CC(c2ccc(C(=N)N)cc2)=NO1)C(=O)O)OCC (centres undefined) [3-{2-[3-(4-Carbamimidoyl-phenyl)-4,5-dihydro-isoxazol-5-yl]-acetylamino}-2-(diethoxy-phosphorylamino)-propionic acid]
6.68	6.99	CC(C)OP(=O)(NC(CNC(=O)CC1CC(c2ccc(C(=N)N)cc2)=NO1)C(=O)O)OC(C)C (centres undefined) [3-{2-[3-(4-Carbamimidoyl-phenyl)-4,5-dihydro-isoxazol-5-yl]-acetylamino}-2-(diisopropoxy-phosphorylamino)-propionic acid]
6.42	6.59	N=C(N)c1ccc(C2=NOC(CC(=O)NCC(NP(=O)(O)O)C(=O)O)C2)cc1 (centres undefined) [3-{2-[3-(4-Carbamimidoyl-phenyl)-4,5-dihydro-isoxazol-5-yl]-acetylamino}-2-phosphonoamino-propionic acid]

Second part, the compound before the results:

SMILES	pIC50 [1]	pIC50 [2]
N=C(N)c1ccc(C2=NOC(CC(=O)NCCC(=O)O)C2)cc1 (centres undefined)	6.25	
[H]/N=C(/N)c1ccc(C2=NO[C@@H](CC(=O)NC[C@H](NC(=O)OCCCC)C(=O)O)C2)cc1	7.18	
CCCCOP(=O)(NC(CNC(=O)CC1CC(c2ccc(C(=N)N)cc2)=NO1)C(=O)O)OCCCC (centres undefined) [3-{2-[3-(4-Carbamimidoyl-phenyl)-4,5-dihydro-isoxazol-5-yl]-acetylamino}-2-(dibutoxy-phosphorylamino)-propionic acid]	6.66	6.94
COP(=O)(NC(CNC(=O)CC1CC(c2ccc(C(=N)N)cc2)=NO1)C(=O)O)OC (centres undefined) [3-{2-[3-(4-Carbamimidoyl-phenyl)-4,5-dihydro-isoxazol-5-yl]-acetylamino}-2-(dimethoxy-phosphorylamino)-propionic acid]	6.71	6.98
